Measured values published in patent US20020170078A1, “Calcineurin-related transgenic mammals, compositions and methods” (priority 2001, published 2002).

System: Schaffer collateral pathway to area CA1 of hippocampal slices
Test: 1-train (100 Hz) LTP, field potential recordings in hippocampal slices
Assay type: cell-based, mouse

Row | SMILES | effect on the enhanced LTP (100 uM, at least 20 min pretreatment, mutant slices) | 1-train LTP, % baseline 30 min after tetanus [% baseline] | effect on 1-train LTP (control slices, 30 min pretreatment) | effect on the increased potentiation (enhanced 1-train LTP) (mutant slices)
1 | NC(CCCP(=O)(O)O)C(=O)O (racemic) [DL-AP5] | abolished |  |  | 
2 | CCCCCCOC(=O)[C@]1(O)C[C@@H]2O[C@@]1(C)n1c3ccccc3c3c4c(c5c6ccccc6n2c5c31)C(=O)NC4 [KT5720] |  | 134±6 | no effect | suppressed
